Laboratory results as given in a compilation of properties of binary mixtures (doi:10.1016/j.jct.2010.03.017).

Experiment: xn = mol fraction of the nth substance listed
Details: 101 kPa

CC[n+]1ccn(C)c1.N#C[N-]C#N + O
electrical conductivity [S/m]
Details | x2 = 0.2 | x2 = 0.4 | x2 = 0.6 | x2 = 0.8
293.2 K | 2.72 | 3.47 | – | –
298.2 K | 3.09 | 3.91 | 5.06 | 6.41
303.2 K | 3.48 | 4.4 | 5.7 | 7.2
308.2 K | – | 4.91 | – | 8
313.2 K | – | 5.43 | 7.03 | –
318.2 K | – | 5.97 | 7.73 | 9.63
323.2 K | 5.25 | 6.52 | 8.42 | 10.5
328.2 K | – | 7.08 | 9.14 | 11.4
333.2 K | 6.22 | 7.65 | 9.85 | 12.2
338.2 K | 6.71 | – | – | 13.1
343.2 K | 7.26 | 8.81 | 11.3 | 13.9
348.2 K | 7.79 | 9.42 | 12 | 14.8
353.2 K | 8.36 | 10 | 12.7 | 15.6

CCn1cc[n+](C)c1.COCCOCCOS(=O)(=O)[O-] + O
electrical conductivity [S/m]
Details | x2 = 0.2 | x2 = 0.4 | x2 = 0.6 | x2 = 0.8
293.2 K | 0.19 | 0.24 | 0.42 | 0.82
298.2 K | 0.23 | – | – | 0.99
303.2 K | 0.3 | 0.38 | 0.63 | 1.18
308.2 K | 0.38 | 0.47 | 0.76 | 1.4
313.2 K | – | 0.57 | 0.9 | –
318.2 K | 0.56 | 0.68 | 1.06 | 1.87
323.2 K | 0.67 | 0.79 | 1.22 | 2.12
328.2 K | 0.79 | – | 1.4 | 2.39
333.2 K | 0.92 | 1.06 | 1.58 | 2.68
338.2 K | – | 1.2 | – | –
343.2 K | 1.2 | 1.35 | 1.96 | –
348.2 K | – | – | 2.17 | 3.59
353.2 K | 1.51 | 1.68 | – | –
